System: L929 mammalian fibroblasts
Assay: MEM (Minimum Essential Medium) USP elution in-vitro toxicity test
Type: cell-based
Description: In testing the toxicity of compounds of the compositions disclosed in solution, an MEM test procedure is used. The MEM (Minimum Essential Medium) test procedure is employed to evaluate cytoxicity using standard USP (The United States Pharmacopeial Convention) elution assays. A description of the test procedure is provided herein.
The assay provides a means of evaluating extracts of polymeric materials under direct contact conditions. This method is appropriate for high-density materials and for dose-response evaluations.
All reagents should be tissue culture grade or equivalent and should be reconstituted in accordance with manufacturer's instructions using aseptic technique.
Media Preparation: 1× MEM media is prepared by mixing 100 mL Eagle's MEM (with Earl's Salts and Sodium Bicarbonate, without L-glutamine), with 10 mL serum, 1 mL-glutamine solution, and 0.5 mL antibiotic solution (L-glutamine and antibiotic solutions are purchased at correct concentrations and stored frozen at −20° C.±2). Eagle's MEM is a sterile minimum essential medium and is available from Mediatech Celigro. Media may be stored up to 2 weeks at a temperature of 2° C.±2 after L-glutamine and antibiotics are added, or up to 1 month, if only serum is added. Preparation of 0.25% Trypsin: 10× Trypsin is placed in sterile 50 ml centrifuge tubes in 4 ml aliquots and stored frozen at −20° C.±2. Before use, a 4 ml aliquot of 10× trypsin is diluted 1:9 with 36 ml of Dulbecco's Phosphate Buffered Saline (PBS) to yield a 0.25% solution. Dulbecco's Saline is available from Mediatech Cellgro. Sterile 35 mm diameter petri dishes or 6 well tissue culture plates are used. Sterile serological pipets are employed in the procedure. Sterile absorbent material (e.g. Kay-Drys or similar material) is used. L929 mammalian fibroblasts (ATCC cell line CCL1, NCTC clone 929) are employed. […]
Exposure to Test Extracts: Exposure to test extracts is determined examining a representative prepared cell culture plate using the microscope to observe the cell monolayer for correct confluency. […]

With `O.O.O.O.O.O.O=C([O-])c1ccccc1C(=O)O[O-].[Mg+2]` [magnesium perphthalate, magnesium monoperoxyphthalate hexahydrate] the cells dead (concentrations below 0.5%) was 2-3%, the “MEM Test Result level” value (concentrations below 0.5%, generally) was 1 (Slight Not more than 20% of cells round and loosely attached—occasional lysed cells present) and the “toxicity level MEM” value (concentrations of 0.5% and above, with and without saline) was 4.

Reference: patent US6939511B2, “Contact lens treating method and composition” (Novartis AG, priority 2000, dated 2005)
